These results are taken from patent US20110172163A1, “Novel Protease Inhibitors” (QUEENSLAND UNIVERSITY OF TECHNOLOGY, priority 2008, published 2011).

“Also recorded” adds a separate entry of the source. Like-named read-outs stand apart in the source and are kept apart here. Bridge positions count the residues as written; N and C are the ends. Peptide text beside a SMILES is read from it.

The target of one data set is T1, bovine β-trypsin (Bos taurus, UniProt P00760).
T1 construct: bovine β-trypsin (20 ng); purchased Sigma Chemicals
T1 sequence (P00760 24-246): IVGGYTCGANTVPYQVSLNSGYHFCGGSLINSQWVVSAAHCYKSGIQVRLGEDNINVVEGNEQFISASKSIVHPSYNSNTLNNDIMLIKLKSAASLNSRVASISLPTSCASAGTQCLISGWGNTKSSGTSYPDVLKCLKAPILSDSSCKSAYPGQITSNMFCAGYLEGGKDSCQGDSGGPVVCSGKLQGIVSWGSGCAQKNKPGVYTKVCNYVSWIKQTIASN
Put plainly: Inhibitor kinetics: trypsin amidolytic activity. It counts as biochemical. The following applies: trypsin; read-out: IC50. As for the experimental part: (§1) All enzymes and substrates were obtained from Sigma Chemicals if not otherwise specified. […] The release of pNa moiety was monitored as described above for 7 minutes with each point being the average of three independent triplicate reactions. IC50 was determined using the Prism 5 software suite (GraphPad software Inc.).

For a further data set, the target named is T2, bovine α-chymotrypsin (Bos taurus, UniProt P00766).
T2 construct: purchased Sigma Chemicals
In words: Inhibitor kinetics: α-chymotrypsin amidolytic activity. It counts as biochemical. Particulars: substrate W-pNA (0.2 mM). As for the experimental part:
as §1

The target of another data set is KLK2 (Homo sapiens, UniProt P20151). Put plainly: Protein proteolysis: fibrinogen digestion by KLK2. Particulars: up to a concentration of 2 μM. It counts as biochemical.
The next data set concerns the target KLK12 (Homo sapiens, UniProt Q9UKR0). In words: Protein proteolysis: fibrinogen digestion by KLK12. It is filed as biochemical. Particulars: up to a concentration of 2 μM.
A further data set has as its target KLK14 (Homo sapiens, UniProt Q9P0G3). In words: Protein proteolysis: fibrinogen digestion by KLK14. It is filed as biochemical. The following applies: up to a concentration of 2 μM.
The nature of data set [1]: Stability of SFTI variants in contact with prostate cancer cells in vitro. It counts as in vitro ADME. The following applies: for half-life at 1 μM: RPMI 1640 with 10% fetal calf serum, read-out: t1/2 of residual inhibitory activity (converted). How it is done:
Cell monolayers of LNCaP, 22Rv1 and PC3 cells were established in RPMI 1640 medium containing 10% fetal calf serum. Each cell line was treated +/−1 μM SFTI-FCQR contained in 4.0 mL RPMI media (as above) with a vehicle control to account for inhibition by intrinsic media factors. 25 μL samples of media were taken at 0, 24, 48, 72, 96 and 120 hrs timepoints. Media samples were boiled at 97° C. for 15 min, centrifuged at 14,000 rpm for 5 min to remove cellular debris and precipitated protein. Residual SFTI-FCQR inhibitory activity in the medium was determined against recombinant KLK4 using FVQR-pNA as a peptide substrate as above using 15ng KLK4 and 30 nmol FVQR-pNA with 2.5 μL and […] of media+/−SFTI-FCQR added from each treatment.

A further data set concerns bovine β trypsin. Put plainly: Trypsin stimulated calcium release in LMF stably expressing human PAR-2. It counts as cell-based. Particulars: 1 μM SFTI-FCQR, trypsin 10 nM. How it is done:
(§2) Lung murine fibroblasts (LMF) from Par-1 null mice stably expressing human PAR-2 were grown to 80% confluence as previously described, washed with PBS, detached nonenzymatically, resuspended (4×10^6 cells/ml) in extracellular medium (121 mM NaCl, 5.4 mM KCl, 0.8 mM MgCl2, 1.8 mM CaCl2, 5.5 mM glucose, 25 mM HEPES (pH 7.4)) containing 0.2% (w/v) bovine serum albumin (Sigma) and then loaded with the fluorescence indicator Fura-2 acetoxymethyl ester (1.0 μM; Invitrogen) at room temperature for 60 min. Cells were then pelleted followed by resuspension in extracellular medium (without bovine serum albumin) at a concentration of 2×10^6 cells/ml for fluorescence measurements. The ratio of fluorescence at 510 nm after excitation at 340 and 380 nm was monitored (Polarstar Optima fluorescent plate reader) during treatment with bovine β trypsin (Sigma Chemicals), PAR-2 activating peptide SLIGKV (AusPep) and iKLK4 with or without SFTI-FCQR.

Another data set has as its system human PAR-2. In words: PAR-2 activating peptide stimulated calcium release in LMF stably expressing human PAR-2. It counts as cell-based. How it is done:
as §2

Data set [2] deals with LNCaP prostate cancer cells. In words: Primary tumour growth of LNCaP cells in nude mice (luciferase imaging). It is filed as in vivo. Particulars: 3×i.v. doses of 0.2 mg/kg, when tumour specific growth rate was less than 2%/day. How it is done:
Nude mice were injected with 1.5×10^6 LNCaP prostate cancer cells stably expressing an exogenous luciferase reporter gene and imaged over a period of 56 days. Tumour growth was measured by injecting mice with […] (a luminescent substrate for luciferase) and the resulting light emissions were quantified using a xenogen in vivo imaging system.

In another data set the target is KLK4 (Homo sapiens, UniProt Q9Y5K2). Put plainly: Inhibitor kinetics: KLK4 amidolytic activity with peptide-pNA substrates. It counts as biochemical. More on the design: pro-region of PSA (KLK3), replacing the native KLK4 pro-region (N, cleaved yes); made in house. How it is done:
Human recombinant KLK4 was expressed in E. coli using a previously described chimeric KLK4 plasmid construct where the native pro-region was replaced with the pro-region of PSA, enabling autoactivation. Protein was expressed as inclusion bodies which were isolated and solubilised as described previously to yield 90% pure KLK4. Protein refolding was performed by dilution into 100 volumes of refolding buffer I (2 M urea, 0.1M NaCl, 5 mM GSH, 0.5 mM GSSG, 10 mM benzamidine, 50 mM tris HCl pH 8.0, 2 mM CaCl2) over 44 hours before further dilution into 3 volumes refolding buffer II (refolding buffer I with 0.5 M urea 0.5 mM GSH, 0.05 mM GSSG, 2 mM CaCl2) over another 24 hours. Dialysis was performed as previously described (with additional 2 mM CaCl2 to reduce aggregation) before concentration using UNO sphere Q (Biorad) eluting with tris buffered saline (pH 7.5)/2 mM CaCl2. Subsequently, the material was purified to apparent homogeneity (according to coomassie blue stained SDS PAGE) by gel filtration using Sephacryl S-200 (GE Health Care) pre-equilibrated with 50 mM Tris-HCl pH 7.5, 20 mM NaCl and 2 mM CaCl2.
All enzymes and substrates were obtained from Sigma Chemicals if not otherwise specified. Bacterially expressed human KLK4 (37 ng), bovine β-trypsin (20 ng), bovine thrombin (20 ng), bovine α-chymotrypsin (0.5 μg), protease (0.5 μg; Streptomyces griseus type XIV), bovine plasminogen (0.5 μg), and human matriptase (30 ng; R&D Systems) were incubated with various concentrations of inhibitors in 200 μL assay buffer for 10 minutes prior to initiation by the addition of 100 μL of 0.3 mM of peptide-pNA substrates (FVQR-pNA: KLK4; BAPNA: trypsin, (Streptomyces griseus Type XIV Protease and bovine plasma plasminogen); Bz-Phe-Val-Arg-pNA: thrombin and matriptase; Trp-pNA: α-chymotrypsin; Leu-pNA: (Streptomyces griseus Type XIV Protease and bovine plasma plasminogen). The release of pNa moiety was monitored as described above for 7 minutes with each point being the average of three independent triplicate reactions. IC50 was determined using the Prism 5 software suite (GraphPad software Inc.).

Chain of KLK4 (Q9Y5K2 31-254): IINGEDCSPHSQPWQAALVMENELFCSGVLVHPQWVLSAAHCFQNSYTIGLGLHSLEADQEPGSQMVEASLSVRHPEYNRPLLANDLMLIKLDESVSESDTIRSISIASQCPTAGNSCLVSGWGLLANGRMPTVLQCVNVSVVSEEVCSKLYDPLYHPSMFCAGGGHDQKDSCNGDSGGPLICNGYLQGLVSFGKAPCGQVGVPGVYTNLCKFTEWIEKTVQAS
Chain of KLK14 (Q9P0G3 35-267 limits assumed): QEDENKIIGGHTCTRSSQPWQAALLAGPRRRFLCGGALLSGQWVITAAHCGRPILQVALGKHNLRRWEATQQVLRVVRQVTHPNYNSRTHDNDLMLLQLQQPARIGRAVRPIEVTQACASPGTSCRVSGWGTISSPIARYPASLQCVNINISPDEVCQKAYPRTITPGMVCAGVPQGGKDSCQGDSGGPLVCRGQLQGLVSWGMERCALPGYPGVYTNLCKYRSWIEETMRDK
Chain of KLK12 (Q9UKR0 18-248): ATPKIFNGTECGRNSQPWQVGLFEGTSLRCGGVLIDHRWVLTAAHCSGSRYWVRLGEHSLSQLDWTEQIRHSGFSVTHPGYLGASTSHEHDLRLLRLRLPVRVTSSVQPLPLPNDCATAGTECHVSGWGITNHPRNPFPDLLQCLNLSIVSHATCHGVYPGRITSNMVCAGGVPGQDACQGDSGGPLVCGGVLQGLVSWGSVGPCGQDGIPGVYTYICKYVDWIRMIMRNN
Chain of KLK2 (P20151 25-261): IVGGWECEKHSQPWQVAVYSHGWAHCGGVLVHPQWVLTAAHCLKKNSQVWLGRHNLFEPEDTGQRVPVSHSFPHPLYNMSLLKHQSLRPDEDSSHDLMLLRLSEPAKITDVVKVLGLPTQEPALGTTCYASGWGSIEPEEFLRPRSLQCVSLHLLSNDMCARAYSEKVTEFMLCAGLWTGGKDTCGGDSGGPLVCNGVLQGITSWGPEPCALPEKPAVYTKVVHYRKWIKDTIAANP

In the case of `CC[C@H](C)[C@@H]1NC(=O)[C@@H]2CCCN2C(=O)[C@@H]2CCCN2C(=O)[C@H]([C@@H](C)CC)NC(=O)[C@H](CO)NC(=O)[C@H](CCCNC(=N)N)NC(=O)[C@H](CCC(N)=O)NC(=O)[C@@H]2CSSC[C@H](NC1=O)C(=O)N[C@@H](Cc1ccccc1)C(=O)N1CCC[C@H]1C(=O)N[C@@H](CC(=O)O)C(=O)NCC(=O)N[C@@H](Cc1ccccc1)C(=O)N2` [SFTI-FCQR] (cyclo(GFCQRSIPPICFPD); disulfide 3-11), the IC50 was 4.06 ± 1.09 µM on bovine β-trypsin, “did not inhibit” on bovine α-chymotrypsin, above 10 µM on bovine α-chymotrypsin (read-out: IC50) and 7.97 ± 1.08 nM against KLK4. The “inhibition of KLK2 digestion of fibrinogen” value on KLK2 is “no inhibition”. In addition, the “inhibition of KLK12 digestion of fibrinogen” value at KLK12 is recorded as “no inhibition”. In addition, on KLK14, the “inhibition of KLK14 digestion of fibrinogen” value was “no inhibition”. Also, in data set [1] (1:5 dilution of supernatant, after a week of contact with prostate cancer cells), the “residual inhibition of recombinant KLK4 by tissue culture supernatant” value is listed as “complete inhibition”. The half-life at 1 μM in data set [1] (22Rv1 cell monolayers, 1 μM incubated with 22RV1 cells) is 4.88 days; in data set [1] (LNCaP cell monolayers, 1 μM incubated with LNCaP cells) it was 4.96 days; in data set [1] (PC3 cell monolayers, 1 μM incubated with PC3 cells), 3.71 days. The “effect on trypsin stimulated calcium release” value in the data set on bovine β trypsin is recorded as “permissive for calcium release; also recorded: no effect; also recorded: increased intracellular Ca^2+ ion concentration”. Also, the “effect on calcium release by PAR-2 activating peptide” value with human PAR-2 (1 μM SFTI-FCQR, PAR-2 activating peptide 100 nM) is “permissive for calcium release; also recorded: no effect”. Further, the “effect on intracellular Ca^2+ of inhibitor alone” value with human PAR-2 (SFTI-FCQR 1 μM without agonist) was “no effect”. Further, the “tumour growth rate in comparison to control” value in data set [2] is “arrested tumour growth rate”. The Ki on KLK4 was found to be 3.59 ± 1.08 nM.
